Measured values reported in ChEMBL document CHEMBL6182933, “Design and Synthesis of PARP/CDK6 Dual-Target Inhibitors Modulating of Wnt/β-Catenin Signaling Pathway for the Treatment of BRCA Wild-Type TNBC” (J Med Chem, 2025).

Experiments:
MDA-MB-231 = assay: Antiproliferative activity against human MDA-MB-231 cells assessed as cell viability incubated for 48 hrs by MTT assay; type: functional, cell-based; settings: MDA-MB-231, 48 h
[1] = biological target: Cyclin-dependent kinase 6 (Homo sapiens, UniProt Q00534); assay: Inhibition of full length N-terminal human recombinant CDK6 expressed in baculovirus sf9 cells in presence of ATP by ADP-glo kinase assay
Cyclin-dependent kinase 6, sequence (Q00534 whole entry): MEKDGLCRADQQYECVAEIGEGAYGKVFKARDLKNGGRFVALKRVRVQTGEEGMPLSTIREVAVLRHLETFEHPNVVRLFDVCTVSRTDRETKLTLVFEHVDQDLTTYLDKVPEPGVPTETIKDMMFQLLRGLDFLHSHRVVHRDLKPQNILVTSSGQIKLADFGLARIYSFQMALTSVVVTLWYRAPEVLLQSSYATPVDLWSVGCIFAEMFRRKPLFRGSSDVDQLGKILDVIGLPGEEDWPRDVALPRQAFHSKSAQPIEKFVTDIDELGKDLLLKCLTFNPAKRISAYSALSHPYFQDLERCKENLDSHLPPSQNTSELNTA

[2] = Selectivity index, ratio of IC50 for antiproliferative activity against human HCC1937 cells harboring BRCA1 mutant assessed as cell viability to IC50 for antiproliferative activity against human MDA-MB-231 cells assessed as cell viability; type: functional
HCC1937 = assay: Antiproliferative activity against human HCC1937 cells harboring BRCA1 mutant assessed as cell viability incubated for 48 hrs by MTT assay; type: functional, cell-based; settings: HCC1937, 48 h
HCT-116 = assay: Antiproliferative activity against human HCT-116 cells harboring BRCA2 mutant assessed as cell viability incubated for 48 hrs by MTT assay; type: functional, cell-based; settings: HCT-116, 48 h
MDA-MB-468 = assay: Antiproliferative activity against human MDA-MB-468 cells assessed as cell viability incubated for 48 hrs by MTT assay; type: functional, cell-based; settings: MDA-MB-468, 48 h
[3] = biological target: Poly [ADP-ribose] polymerase 1 (Homo sapiens, UniProt P09874); assay: Inhibition of GST-tagged PARP1(unknown origin) in presence of activated DNA incubated for 60 mins by microplate reader analysis
Poly [ADP-ribose] polymerase 1, sequence (P09874 whole entry): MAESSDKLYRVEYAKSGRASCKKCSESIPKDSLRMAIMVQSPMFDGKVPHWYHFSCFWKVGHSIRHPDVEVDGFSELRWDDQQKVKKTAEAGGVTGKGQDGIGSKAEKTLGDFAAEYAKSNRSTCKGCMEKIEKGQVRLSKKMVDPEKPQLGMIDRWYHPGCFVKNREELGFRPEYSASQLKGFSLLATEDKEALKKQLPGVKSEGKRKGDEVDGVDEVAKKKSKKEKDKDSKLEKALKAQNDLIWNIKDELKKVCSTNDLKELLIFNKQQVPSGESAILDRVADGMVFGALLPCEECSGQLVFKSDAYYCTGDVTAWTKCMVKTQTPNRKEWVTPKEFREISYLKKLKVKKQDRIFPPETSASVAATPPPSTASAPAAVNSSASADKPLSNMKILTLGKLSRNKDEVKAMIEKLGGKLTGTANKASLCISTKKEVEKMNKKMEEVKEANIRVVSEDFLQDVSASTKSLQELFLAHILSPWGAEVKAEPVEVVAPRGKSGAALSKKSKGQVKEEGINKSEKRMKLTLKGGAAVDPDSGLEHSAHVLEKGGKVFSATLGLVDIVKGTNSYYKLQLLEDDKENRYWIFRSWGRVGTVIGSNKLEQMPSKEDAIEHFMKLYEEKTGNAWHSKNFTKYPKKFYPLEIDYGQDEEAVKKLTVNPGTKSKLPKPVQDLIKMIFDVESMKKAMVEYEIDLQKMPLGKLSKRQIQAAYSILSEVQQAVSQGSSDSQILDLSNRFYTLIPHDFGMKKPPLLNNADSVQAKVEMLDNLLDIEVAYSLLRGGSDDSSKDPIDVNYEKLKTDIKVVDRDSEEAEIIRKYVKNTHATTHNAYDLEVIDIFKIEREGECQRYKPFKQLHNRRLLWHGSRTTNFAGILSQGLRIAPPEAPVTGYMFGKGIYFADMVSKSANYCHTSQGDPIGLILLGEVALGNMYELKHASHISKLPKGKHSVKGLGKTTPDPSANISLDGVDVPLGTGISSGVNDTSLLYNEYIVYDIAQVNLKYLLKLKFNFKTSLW

[4] = Cytotoxicity against human MCF-10A cells assessed as cell viability incubated for 48 hrs by MTT assay; type: toxicity, cell-based

## CN(C)C(=O)c1cc2cnc(Nc3ccc(C(=O)N4CCC(c5nc6c(C(N)=O)cccc6[nH]5)C4)cc3Cl)nc2n1C1CCCC1 (stereo not drawn)
MDA-MB-231
  IC50: 1590 nM
[1]
  IC50: 45.6 nM
[2]
  Ratio IC50: 5.48
HCC1937
  IC50: 8.72 µM
HCT-116
  IC50: 2020 nM
MDA-MB-468
  IC50: 4.39 µM
[3]
  IC50: 113 nM
[4]
  IC50 at 48 h: 930 nM
